Measured values reported in ChEMBL document CHEMBL1201862, “PubChem BioAssay data set” (2004).
The source made the active and inactive calls.

Legend:
[1] = target: ADP-ribosylation factor GTPase-activating protein 1 (Rattus norvegicus, UniProt Q62848); test: Fluorescence polarization-based biochemical high throughput dose response screening assay to identify inhibitors of ADP-ribosylation factor GTPase activating protein 1 (ARFGAP1).; format: functional
[2] = Trypanosoma cruzi growth suppression in host cells – NIH3T3 host cells, beta-gal luminescence, confirmation (AID 2044); format: functional, cell-based;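 note: intracellular parasites grown in NIH/3T3 mouse fibroblasts as host cells; luminescent beta-galactosidase reporter signal from transgenic T. cruzi replicating inside host cells; inhibitors lower the luminescence signal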
[3] = NIH3T3 cell viability loss – ATP luminescence, mouse fibroblasts, counter-screen, dose response (AID 2010); format: functional, cell-based;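 note: cells exposed to compound for about 90 hours before reading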
INS1 = test: INS-1E survival protection against cytokine death – cell-based, luminescence, retest, dose response (AID 449756); format: functional; conditions: Rattus norvegicus;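 note: cell death triggered by IL-1 beta plus TNF-alpha plus IFN-gamma mixture; protective hits raise ATP signal compared with cytokine alone wells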
Protein Wnt-3a = Protein Wnt-3a (Mus musculus, UniProt P27467); test: antagonism of Wnt3a pathway luciferase reporter – Wnt-LIGHT cells, luminescence, selectivity assay for Gli-SUFU antagonist project, dose response (AID 651570); format: functional; conditions: read-out: IC50_Mean;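 note: Wnt-LIGHT reporter cells stimulated with conditioned medium from Wnt3a-producing cells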
Sequence of Protein Wnt-3a (P27467 whole entry): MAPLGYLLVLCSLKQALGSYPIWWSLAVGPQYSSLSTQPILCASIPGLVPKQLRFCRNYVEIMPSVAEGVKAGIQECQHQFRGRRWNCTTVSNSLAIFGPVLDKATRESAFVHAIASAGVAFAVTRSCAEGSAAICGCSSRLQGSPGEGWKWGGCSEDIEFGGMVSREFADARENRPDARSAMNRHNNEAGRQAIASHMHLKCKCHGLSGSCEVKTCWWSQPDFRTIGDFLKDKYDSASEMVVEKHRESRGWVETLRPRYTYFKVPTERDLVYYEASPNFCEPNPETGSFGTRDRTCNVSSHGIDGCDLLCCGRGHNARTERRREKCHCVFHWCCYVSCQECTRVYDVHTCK

[4] = target: Nuclear receptor subfamily 5 group A member 2 (Homo sapiens, UniProt O00482); format: functional, cell-based;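 note: HEK293T cells transfected with LRH-1 and a StAR promoter luciferase reporter; potency for inhibitors that lower LRH-1 driven reporter light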
Sequence of Nuclear receptor subfamily 5 group A member 2 (O00482 whole entry): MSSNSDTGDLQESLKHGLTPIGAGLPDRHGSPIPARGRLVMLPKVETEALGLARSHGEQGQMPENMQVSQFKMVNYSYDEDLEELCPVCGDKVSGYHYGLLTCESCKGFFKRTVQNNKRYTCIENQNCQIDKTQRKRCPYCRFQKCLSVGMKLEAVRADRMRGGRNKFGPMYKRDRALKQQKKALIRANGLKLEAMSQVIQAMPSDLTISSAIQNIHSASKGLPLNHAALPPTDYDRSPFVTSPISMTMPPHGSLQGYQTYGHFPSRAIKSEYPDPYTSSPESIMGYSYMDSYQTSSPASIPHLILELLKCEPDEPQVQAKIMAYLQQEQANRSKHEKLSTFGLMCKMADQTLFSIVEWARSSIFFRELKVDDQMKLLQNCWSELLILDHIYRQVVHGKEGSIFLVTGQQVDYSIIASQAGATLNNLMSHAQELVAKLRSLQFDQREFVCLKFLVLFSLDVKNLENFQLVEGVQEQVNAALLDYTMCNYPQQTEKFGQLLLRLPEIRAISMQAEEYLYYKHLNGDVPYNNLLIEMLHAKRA

Steroidogenic factor 1 = Steroidogenic factor 1 (Homo sapiens, UniProt Q13285); test: Counterscreen for inverse agonists of the liver receptor homolog-1 (LRH-1; NR5A2): Luminescence-based cell-based high throughput dose response assay to identify inverse agonists of the Steroidogenic Factor 1 Nuclear Receptor (SF1; NR5A1).; format: functional
Sequence of Steroidogenic factor 1 (Q13285 whole entry): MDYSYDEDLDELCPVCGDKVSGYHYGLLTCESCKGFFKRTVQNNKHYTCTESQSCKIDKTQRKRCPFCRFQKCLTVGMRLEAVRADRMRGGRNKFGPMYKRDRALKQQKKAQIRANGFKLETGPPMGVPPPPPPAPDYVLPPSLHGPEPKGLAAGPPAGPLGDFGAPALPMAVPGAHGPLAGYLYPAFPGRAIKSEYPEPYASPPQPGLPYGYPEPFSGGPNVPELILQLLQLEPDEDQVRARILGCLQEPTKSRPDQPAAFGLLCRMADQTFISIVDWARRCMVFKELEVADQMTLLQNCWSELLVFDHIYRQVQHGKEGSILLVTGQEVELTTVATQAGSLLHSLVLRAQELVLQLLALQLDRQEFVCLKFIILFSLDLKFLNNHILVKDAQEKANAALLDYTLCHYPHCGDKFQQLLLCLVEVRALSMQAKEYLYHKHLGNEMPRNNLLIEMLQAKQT

[5] = nonselective StAR promoter luciferase inhibitors – cell-based, luminescence, luciferase reporter, counter-screen for LRH-1 inverse agonist project, dose response (AID 651969); format: functional
[6] = decrease of insulin promoter-GFP reporter – imaging, high-content screening, mouse beta cells (AID 1628); format: functional; conditions: MIN6
[7] = MIN6 cell viability loss – mouse insulinoma, cytotoxicity control, dose response (AID 2122); format: functional;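 note: confirmatory high-throughput counterscreen run to flag cytotoxic compounds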
[8] = microbe, parasite or virus in culture; format: functional; conditions: Mycobacterium tuberculosis
[9] = viability of PTEN-deleted HCT116 cells – cell-based, HCT116 PTEN knockout, dose response (AID 1047); format: functional;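 note: HCT116 colon tumor cells with PTEN knocked out; cells exposed to compound for 60 hours before readout; potency for loss of cell viability measured by luminescence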
[10] = viability of HCT116 lacking mutant beta-catenin – cell-based, human colon tumor, dose response (AID 1045); format: functional;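 note: HCT116 colon tumor cells with beta catenin knocked out; cells exposed to compound for 60 hours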
[11] = target: T1, Ubiquitin-conjugating enzyme E2 N (Homo sapiens, UniProt P61088); format: functional;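 note: Dose-response confirmation in a TR-FRET assay detecting UBC13-driven polyubiquitin chain formation, inhibition measured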
T1 sequence (P61088 whole entry): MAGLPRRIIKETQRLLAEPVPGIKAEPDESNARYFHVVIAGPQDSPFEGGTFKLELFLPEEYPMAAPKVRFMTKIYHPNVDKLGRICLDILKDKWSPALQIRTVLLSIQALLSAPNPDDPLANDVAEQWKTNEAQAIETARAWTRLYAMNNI

[12] = target: DNA (cytosine-5)-methyltransferase 1 (Homo sapiens, UniProt P26358); test: inhibition of DNA methylation by DNMT1 – biochemical, fluorescent molecular beacon, confirmation (AID 602386); format: functional
Sequence of DNA (cytosine-5)-methyltransferase 1 (P26358 whole entry): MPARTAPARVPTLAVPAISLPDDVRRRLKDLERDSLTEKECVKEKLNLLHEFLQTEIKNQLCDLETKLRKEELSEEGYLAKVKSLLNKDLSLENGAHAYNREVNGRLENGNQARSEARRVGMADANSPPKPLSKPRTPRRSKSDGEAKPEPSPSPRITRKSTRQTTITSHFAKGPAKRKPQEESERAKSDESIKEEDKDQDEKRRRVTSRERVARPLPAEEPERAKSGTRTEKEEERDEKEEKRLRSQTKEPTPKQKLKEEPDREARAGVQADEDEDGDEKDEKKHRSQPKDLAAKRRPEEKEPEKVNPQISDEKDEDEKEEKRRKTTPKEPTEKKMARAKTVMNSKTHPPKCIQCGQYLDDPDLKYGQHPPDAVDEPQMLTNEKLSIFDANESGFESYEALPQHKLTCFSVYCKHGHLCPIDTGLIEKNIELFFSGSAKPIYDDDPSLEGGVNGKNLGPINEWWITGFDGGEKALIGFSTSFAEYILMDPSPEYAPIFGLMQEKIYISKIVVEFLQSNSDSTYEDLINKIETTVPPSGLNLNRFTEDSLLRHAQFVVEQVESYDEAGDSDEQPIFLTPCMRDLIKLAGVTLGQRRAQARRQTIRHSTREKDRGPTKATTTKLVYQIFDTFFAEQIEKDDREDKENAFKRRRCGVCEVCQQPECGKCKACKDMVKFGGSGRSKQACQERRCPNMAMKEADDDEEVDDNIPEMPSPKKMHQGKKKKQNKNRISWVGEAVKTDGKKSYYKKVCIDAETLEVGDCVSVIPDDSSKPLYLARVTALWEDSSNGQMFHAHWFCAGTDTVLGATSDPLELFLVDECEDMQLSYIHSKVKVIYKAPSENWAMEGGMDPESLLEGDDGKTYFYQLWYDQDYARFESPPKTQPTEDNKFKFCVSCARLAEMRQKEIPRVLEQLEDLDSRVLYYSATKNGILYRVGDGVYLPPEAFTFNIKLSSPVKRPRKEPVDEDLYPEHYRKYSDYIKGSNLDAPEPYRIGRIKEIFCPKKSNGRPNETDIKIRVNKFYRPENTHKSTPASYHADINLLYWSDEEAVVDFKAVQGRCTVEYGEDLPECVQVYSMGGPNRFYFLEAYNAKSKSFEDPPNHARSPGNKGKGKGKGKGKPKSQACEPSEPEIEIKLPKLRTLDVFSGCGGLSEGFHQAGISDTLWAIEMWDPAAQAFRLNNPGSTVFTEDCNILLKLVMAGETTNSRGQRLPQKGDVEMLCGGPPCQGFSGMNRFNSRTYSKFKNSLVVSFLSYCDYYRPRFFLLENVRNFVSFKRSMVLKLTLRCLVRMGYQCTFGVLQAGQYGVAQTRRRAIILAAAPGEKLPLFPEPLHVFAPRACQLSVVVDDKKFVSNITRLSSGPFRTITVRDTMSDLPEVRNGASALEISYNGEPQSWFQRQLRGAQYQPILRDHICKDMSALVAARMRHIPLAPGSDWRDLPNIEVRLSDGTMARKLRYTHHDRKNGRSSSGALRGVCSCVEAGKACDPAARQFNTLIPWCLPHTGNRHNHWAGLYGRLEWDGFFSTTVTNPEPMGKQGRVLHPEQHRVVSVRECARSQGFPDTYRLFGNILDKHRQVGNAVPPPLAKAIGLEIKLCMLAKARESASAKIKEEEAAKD

[13] = target: DNA repair and recombination protein RAD54-like (Homo sapiens, UniProt Q92698); test: RAD54 Holliday junction migration blockers – biochemical, fluorescence, cherry-picked samples, dose series, confirmation (AID 651657); format: functional
Sequence of DNA repair and recombination protein RAD54-like (Q92698 whole entry): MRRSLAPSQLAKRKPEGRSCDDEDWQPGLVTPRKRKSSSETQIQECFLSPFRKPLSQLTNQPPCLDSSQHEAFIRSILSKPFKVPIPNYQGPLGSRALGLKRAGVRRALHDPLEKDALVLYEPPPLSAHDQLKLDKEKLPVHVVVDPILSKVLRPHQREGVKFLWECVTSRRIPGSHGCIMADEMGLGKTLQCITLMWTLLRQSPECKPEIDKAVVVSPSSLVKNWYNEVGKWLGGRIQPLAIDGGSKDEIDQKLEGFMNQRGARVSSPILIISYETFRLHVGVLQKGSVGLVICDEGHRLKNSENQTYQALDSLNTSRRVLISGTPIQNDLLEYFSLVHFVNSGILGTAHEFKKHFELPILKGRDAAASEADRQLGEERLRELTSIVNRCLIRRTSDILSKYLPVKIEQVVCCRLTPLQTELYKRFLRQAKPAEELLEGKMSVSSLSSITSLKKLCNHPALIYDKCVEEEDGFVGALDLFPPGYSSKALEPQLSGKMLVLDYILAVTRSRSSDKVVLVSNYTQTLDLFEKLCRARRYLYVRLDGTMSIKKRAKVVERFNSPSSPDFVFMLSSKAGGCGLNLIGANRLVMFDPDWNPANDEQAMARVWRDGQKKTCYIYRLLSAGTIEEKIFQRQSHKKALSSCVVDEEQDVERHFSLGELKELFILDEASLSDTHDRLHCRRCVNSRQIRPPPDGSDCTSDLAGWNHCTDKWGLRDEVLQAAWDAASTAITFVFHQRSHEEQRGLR

Insulin-degrading enzyme [14] = target: T2, Insulin-degrading enzyme (Homo sapiens, UniProt P14735); test: recombinant IDE activation, cell-free – biochemical, fluorescence polarization, counter-screen for IDE activator project, dose response (AID 588681)
T2 sequence (P14735 whole entry): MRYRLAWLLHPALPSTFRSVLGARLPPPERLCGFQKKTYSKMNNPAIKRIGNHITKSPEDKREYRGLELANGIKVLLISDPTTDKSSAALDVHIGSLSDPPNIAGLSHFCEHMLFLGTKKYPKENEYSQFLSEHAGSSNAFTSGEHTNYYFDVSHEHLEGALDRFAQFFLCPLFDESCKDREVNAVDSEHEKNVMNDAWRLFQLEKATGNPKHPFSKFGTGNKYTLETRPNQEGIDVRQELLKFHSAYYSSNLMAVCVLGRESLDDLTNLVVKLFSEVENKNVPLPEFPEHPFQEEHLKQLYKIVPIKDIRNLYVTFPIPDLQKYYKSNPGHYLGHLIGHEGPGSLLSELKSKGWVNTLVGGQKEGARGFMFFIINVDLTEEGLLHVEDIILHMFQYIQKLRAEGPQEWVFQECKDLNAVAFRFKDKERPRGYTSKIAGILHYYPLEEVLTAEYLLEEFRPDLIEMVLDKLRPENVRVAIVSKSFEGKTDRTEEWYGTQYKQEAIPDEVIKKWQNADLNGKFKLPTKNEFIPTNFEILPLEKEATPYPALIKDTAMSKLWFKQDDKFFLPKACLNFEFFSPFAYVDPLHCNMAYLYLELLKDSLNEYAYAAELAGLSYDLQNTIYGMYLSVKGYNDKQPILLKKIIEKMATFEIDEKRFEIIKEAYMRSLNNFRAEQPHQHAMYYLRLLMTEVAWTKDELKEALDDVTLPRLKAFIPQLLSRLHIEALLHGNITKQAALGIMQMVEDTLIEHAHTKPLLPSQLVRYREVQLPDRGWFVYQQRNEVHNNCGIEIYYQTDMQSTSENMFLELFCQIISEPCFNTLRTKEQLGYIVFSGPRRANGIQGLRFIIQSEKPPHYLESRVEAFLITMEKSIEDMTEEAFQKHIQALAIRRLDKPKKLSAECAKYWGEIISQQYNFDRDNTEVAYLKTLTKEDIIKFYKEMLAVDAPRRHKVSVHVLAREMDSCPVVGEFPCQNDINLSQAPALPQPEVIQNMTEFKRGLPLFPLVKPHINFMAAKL

Insulin-degrading enzyme [15] = target: T2, Insulin-degrading enzyme; test: cellular IDE activation of Abeta substrate cleavage – fluorescence polarization, HEK cells, dose response (AID 588439); format: functional, cell-based
HEK293 [16] = test: membrane integrity loss in HEK cells – cell-based, fluorescence, cytotoxicity control for IDE activator project, dose response (AID 588440); format: functional; conditions: Homo sapiens;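 note: cytotoxicity by LDH release measuring loss of membrane integrity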
HEK293 [17] = test: optical interference in Abeta FP readout, dose response, artefact control for IDE activator project, biochemical, fluorescence polarization (AID 588442); format: functional, cell-based; conditions: Homo sapiens
[18] = target: Tyrosine-protein phosphatase non-receptor type 11 (Homo sapiens, UniProt Q06124); test: PTPN11 enzyme inhibitors – biochemical, selectivity assay for STEP inhibitor project, dose response (AID 602367); format: functional; conditions: read-out: IC50_Mean
[19] = target: Tyrosine-protein phosphatase non-receptor type 5 (Homo sapiens, UniProt P54829); test: PTPN5 enzyme inhibition – biochemical, fluorescence intensity, uHTS hits, confirmation (AID 602372); format: functional; conditions: read-out: IC50_Mean
Sequence of Tyrosine-protein phosphatase non-receptor type 5 (P54829 whole entry): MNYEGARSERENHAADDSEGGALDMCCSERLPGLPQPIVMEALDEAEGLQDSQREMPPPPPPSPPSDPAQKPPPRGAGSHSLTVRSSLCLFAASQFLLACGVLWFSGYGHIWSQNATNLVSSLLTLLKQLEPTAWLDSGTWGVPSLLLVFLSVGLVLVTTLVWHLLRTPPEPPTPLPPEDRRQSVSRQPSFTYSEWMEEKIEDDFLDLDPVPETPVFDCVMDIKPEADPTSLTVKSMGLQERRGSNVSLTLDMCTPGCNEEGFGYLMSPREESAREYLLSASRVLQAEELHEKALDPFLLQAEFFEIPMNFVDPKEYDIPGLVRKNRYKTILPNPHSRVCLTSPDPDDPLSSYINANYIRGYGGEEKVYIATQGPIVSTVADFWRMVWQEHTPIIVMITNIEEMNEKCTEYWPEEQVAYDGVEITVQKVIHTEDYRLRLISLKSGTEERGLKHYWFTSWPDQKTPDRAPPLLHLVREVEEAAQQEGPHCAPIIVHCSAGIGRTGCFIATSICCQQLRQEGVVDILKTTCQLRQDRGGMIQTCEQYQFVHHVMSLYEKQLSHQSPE

[20] = target: Dual specificity protein phosphatase 3 (Homo sapiens, UniProt P51452); test: VHR phosphatase inhibition, dose response, selectivity assay for STEP inhibitor project, biochemical (AID 602374); format: functional; conditions: read-out: IC50_Mean
Sequence of Dual specificity protein phosphatase 3 (P51452 whole entry): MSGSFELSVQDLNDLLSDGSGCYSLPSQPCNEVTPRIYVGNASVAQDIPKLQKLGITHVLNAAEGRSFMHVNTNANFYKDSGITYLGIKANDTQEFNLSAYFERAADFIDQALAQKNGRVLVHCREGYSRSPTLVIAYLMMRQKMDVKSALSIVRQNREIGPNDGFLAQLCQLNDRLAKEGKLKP

[21] = target: T3, DNA repair protein RAD52 homolog (Homo sapiens, UniProt P43351); format: functional, biochemical
T3 sequence (P43351 whole entry): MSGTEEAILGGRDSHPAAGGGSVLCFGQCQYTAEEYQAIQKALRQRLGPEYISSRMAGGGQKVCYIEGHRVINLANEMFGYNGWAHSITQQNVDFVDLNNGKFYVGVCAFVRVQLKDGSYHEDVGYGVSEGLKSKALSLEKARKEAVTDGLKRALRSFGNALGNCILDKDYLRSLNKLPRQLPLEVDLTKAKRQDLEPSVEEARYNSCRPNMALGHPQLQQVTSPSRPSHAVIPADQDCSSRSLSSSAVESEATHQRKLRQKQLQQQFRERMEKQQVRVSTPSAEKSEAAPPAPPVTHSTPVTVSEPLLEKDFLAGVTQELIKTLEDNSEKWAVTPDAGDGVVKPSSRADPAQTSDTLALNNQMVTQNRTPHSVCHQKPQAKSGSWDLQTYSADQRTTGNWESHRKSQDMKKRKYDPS

[22] = target: T4, Carboxy-terminal domain RNA polymerase II polypeptide A small phosphatase 1 (Homo sapiens, UniProt Q9GZU7); test: CTDSP1 inhibitors, concentration-response, biochemical, absorbance readout, ultra-high-throughput screen actives (AID 540297); format: functional
T4 sequence (Q9GZU7 whole entry): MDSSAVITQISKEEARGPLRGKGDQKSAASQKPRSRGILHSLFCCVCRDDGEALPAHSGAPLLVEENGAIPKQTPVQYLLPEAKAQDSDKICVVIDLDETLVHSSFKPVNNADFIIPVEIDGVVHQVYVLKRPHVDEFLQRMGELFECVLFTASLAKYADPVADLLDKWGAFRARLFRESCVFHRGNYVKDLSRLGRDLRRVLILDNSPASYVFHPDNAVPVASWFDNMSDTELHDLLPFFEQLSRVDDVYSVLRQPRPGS

[23] = target: T5, Rac GTPase-activating protein 1 (Homo sapiens, UniProt Q9H0H5); test: blockers of MgcRacGAP-driven Rac1 GTP hydrolysis – biochemical, ADP Hunter fluorescence, primary and confirmatory, confirmation (AID 624330); format: functional
T5 sequence (Q9H0H5 whole entry): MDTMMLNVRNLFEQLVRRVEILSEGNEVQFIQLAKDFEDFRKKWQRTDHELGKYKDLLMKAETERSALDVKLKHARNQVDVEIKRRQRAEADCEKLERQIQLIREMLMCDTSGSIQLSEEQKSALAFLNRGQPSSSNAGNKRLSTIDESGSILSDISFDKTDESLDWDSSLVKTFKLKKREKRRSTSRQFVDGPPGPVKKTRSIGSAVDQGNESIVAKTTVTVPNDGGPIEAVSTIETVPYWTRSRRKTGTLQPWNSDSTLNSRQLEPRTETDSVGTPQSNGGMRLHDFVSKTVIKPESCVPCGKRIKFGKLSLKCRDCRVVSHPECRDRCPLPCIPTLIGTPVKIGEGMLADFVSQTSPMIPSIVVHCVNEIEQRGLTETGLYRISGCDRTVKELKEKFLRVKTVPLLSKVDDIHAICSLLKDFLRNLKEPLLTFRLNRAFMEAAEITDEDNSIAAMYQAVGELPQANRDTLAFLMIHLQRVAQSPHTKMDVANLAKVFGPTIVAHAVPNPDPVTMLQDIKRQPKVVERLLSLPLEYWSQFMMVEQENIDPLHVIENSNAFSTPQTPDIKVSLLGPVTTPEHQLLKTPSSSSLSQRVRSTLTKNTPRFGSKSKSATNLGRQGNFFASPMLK

Sequence of ADP-ribosylation factor GTPase-activating protein 1 (Q62848 whole entry): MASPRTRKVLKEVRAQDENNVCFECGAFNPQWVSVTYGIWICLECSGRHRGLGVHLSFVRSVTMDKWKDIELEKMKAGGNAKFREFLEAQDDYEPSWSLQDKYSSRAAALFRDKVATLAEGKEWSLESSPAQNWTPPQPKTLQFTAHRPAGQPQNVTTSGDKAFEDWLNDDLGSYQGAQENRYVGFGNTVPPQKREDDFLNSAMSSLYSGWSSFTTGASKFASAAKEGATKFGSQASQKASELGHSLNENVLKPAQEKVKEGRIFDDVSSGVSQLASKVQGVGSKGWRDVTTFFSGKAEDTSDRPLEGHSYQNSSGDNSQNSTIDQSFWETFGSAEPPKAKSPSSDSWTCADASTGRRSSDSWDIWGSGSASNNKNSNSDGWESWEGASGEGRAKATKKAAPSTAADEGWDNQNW

Compound: Cc1cc(NS(=O)(=O)c2ccc(NC(=S)NC(=O)c3cccc(S(=O)(=O)N(C)C)c3)cc2)no1
- IC50 [1]: 46.6 µM (inactive)

Compound: Cc1cc(/C=C2/SC(=S)N(c3ccc([N+](=O)[O-])cc3)C2=O)c(C)n1-c1cccnc1
- EC50 [2]: 0.915 µM (active)
- EC50 [3]: > 60 µM (inconclusive)
- AC50 (INS1): 0.862 µM (active)
- IC50 (Protein Wnt-3a): 8.94 µM (active)

Compound: O=C(COC(=O)c1ccc[n+]([O-])c1)Nc1ccc([N+](=O)[O-])cc1Cl
- IC50 [4]: 3.98 µM (active)
- IC50 (Steroidogenic factor 1): 4.98 µM (active)
- IC50 [5]: 35.9 µM (inactive)

Compound: COc1ccccc1Oc1nnnn1-c1ccc(C(N)=O)cc1
- IC50 [4]: 35.9 µM (inactive)
- IC50 (Steroidogenic factor 1): 7.85 µM (active)
- IC50 [5]: 35.9 µM (inactive)

Compound: CCN(CC)CCCNc1nc2cc(OC)c(OC)cc2c2nc(-c3ccccc3)nn12
- IC50 [6]: 1.11 µM (active)
- IC50 [7]: 2.07 µM (active)
- EC50 [2]: 0.709 µM (active)
- CC50 [8]: 19.9 µM (active)
- EC50 [9]: 7.1 µM (active)
- EC50 [3]: 12 µM (active)
- EC50 [10]: 4.58 µM (active)
- IC50 [11]: > 20 µM (inactive)
- IC50 [12]: > 99 µM (inactive)
- AC50 [13]: 2.03 µM (active)

Compound: CC(C)CN(C(=O)COC(=O)c1ccc(Br)cc1)c1c(N)n(Cc2ccccc2)c(=O)[nH]c1=O
- EC50 (Insulin-degrading enzyme [14]): > 54.7 µM (inactive)
- EC50 (Insulin-degrading enzyme [15]): > 54.7 µM (inactive)
- IC50 (HEK293 [16]): 13.4 µM (inactive)
- EC50 (HEK293 [17]): > 55.9 µM (inactive)

Compound: CC(C)OCCCN=C(S)Nc1ccc(S(N)(=O)=O)cc1
- IC50 [18]: 0.771 µM (active)
- IC50 [19]: 53 µM (inactive)
- IC50 [20]: 1.08 µM (active)

Compound: COCCCn1c(C)cc(C(=O)CN2c3cccc4cccc(c34)S2(=O)=O)c1C
- IC50 [1]: 60.2 µM (inactive)

Compound: CCOC(=O)C1(CC2CC2)CCN(Cc2cnc(N(C)C)s2)CC1
- EC50 (Insulin-degrading enzyme [14]): > 54.7 µM (inactive)
- EC50 (Insulin-degrading enzyme [15]): > 54.7 µM (inactive)
- IC50 (HEK293 [16]): > 89.3 µM (inactive)
- EC50 (HEK293 [17]): > 56 µM (inactive)

Compound: Cc1cc(O)nc(SCC(=O)/C=C2\N(C)c3ccccc3C2(C)C)n1
- IC50 (Protein Wnt-3a): 50 µM (inactive)

Compound: Cc1c(OCC(=O)NC2CC(C)(C)NC(C)(C)C2)ccc2c1oc(=O)c1ccccc12
- AC50 [13]: 22.4 µM (active)
- AC50 [21]: 27.1 µM (active)

Compound: C/C=C/C=C/C(=O)C1=C(O)[C@]2(C)C(=O)C(C)(O)[C@H]1[C@H]([C@]1(C)OC(O)=C(C)C1=O)[C@H]2C(=O)/C=C/C=C/C (some centres undefined)
- IC50 [22]: 5.92 µM (active)
- IC50 [12]: 5.25 µM (active)
- IC50 [23]: 122 µM (active)
